This is an account of results in patent US11021498B2 (Acorda Therapeutics, Inc., priority 2008, dated 2021).

SMILES strings stand for the structures. Values after ≈ are worked out from the molar mass of the structure shown. Like-named read-outs stand apart in the source and are kept apart here.

The conditions of data set [1]: background and U.S. Pat. No. 4,322,410; cited from earlier work.
The next data set relates to alkaline phosphatase. To be noted: requires alkaline phosphatase; cited from earlier work.
The nature of data set [2]: Solubility of acetaminophen prodrugs in water. The class given is physicochemical.
The next data set concerns rat hippocampus. To be noted: rat hippocampus insulted with quinolinic acid; cited from earlier work.
For data set [3] the following is noted: Goodman and Gillman's; cited from earlier work.
A further data set has as its system myocytes. The settings on record: guinea pigs, low-flow global myocardial ischemia 30 minutes, then 60 minutes of reperfusion; cited from earlier work.
The conditions of data set [4]: cited from earlier work.
Setting [5] is: water, room temperature, read-out: solubility in water at room temperature.
Where [6] appears, read: Anesthesia and Analgesia 101, 90-96, 2005.
Setting [7] is: British Journal of Anaesthesia 94 (5): 642-648, 2005.

In the case of `CC(=O)Nc1ccc(OP(=O)(O)O)cc1` [4-acetamidophenyl dihydrogen phosphate], the water solubility in data set [1] is listed as 50 g per 100 mL. Moreover, in the data set on alkaline phosphatase, the “time in vitro to yield acetaminophen from the derivative” value is reported as “about 15 hours”.

Consider `CC(=O)Nc1ccc(OCOP(=O)(O)O)cc1` [(4-acetamidophenoxy)methyl dihydrogen phosphate], for which the solubility – broadly, the dissolved amount per volume that the medium holds – was around 145 mg/mL in data set [2] (setting [5]) and 145 mg/mL in data set [2] (water, solvent water, read-out: Solubility).

Turning to `CC(=O)Nc1ccc(O)cc1` [Acetaminophen, N-(4-hydroxyphenyl)acetamide], the water solubility result in data set [1] is recorded as “about 1.3 g per 100 mL”. In the data set on rat hippocampus, the “lipid peroxidation and superoxide anion generation” value was “inhibit both lipid peroxidation and superoxide anion generation”. In addition, the half-life result in data set [3] is listed as “about 2 hours”. Also, in data set [2] (setting [5]), the solubility is around 13 mg/mL (≈ 86 mM). In addition, in the data set on myocytes, the apoptosis in myocytes result was “decrease apoptosis in myocytes”. Further, the local tolerance profile in data set [4] (setting [6]) is on record as 0%; in data set [4] (setting [7]) it was 52%.

Take `CCN(CC)CC(=O)Oc1ccc(NC(C)=O)cc1` [Propacetamol, 4-acetamidophenyl 2-(diethylamino)acetate]: the figures for the local tolerance profile in data set [4] (setting [6]) and in data set [4] (setting [7]) were 49% and 90%, respectively.

As to `CC(=O)Nc1ccc(OCOP(=O)(O)O)cc1` [Sodium (4-acetamidophenoxy)methyl phosphate], in data set [2] (solvent water, phosphate), the solubility was 160 mg/mL. For the same compound, the “solubility in water at room temperature” value in data set [2] (water, room temperature, phosphate) is on record as around 160 mg/mL.
